Source: the supplement of paper PMC10307832

Experiments:
Assay in all cases: relative viability (nuclei count vs DMSO), 5 days (fraction); higher = more cells survive
[1] = compound: CCOC1=CC=CC=C1N=NC2=C(NN(C2=O)C3=NC(=CS3)C4=CC=CC=C4)C [BAM7] + O=C(c1cc(Cc2n[nH]c(=O)c3ccccc23)ccc1F)N1CCN(C(=O)C2CC2)CC1 [Olaparib] (partner 8 µM)
In short: (§1)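 One day after seeding in 1536-well plates, lung cancer cell lines were dosed by pin tool. Dosing was either single-drug or a fixed anchor-drug dose plus five library-drug doses (not always all listed) in √10 steps. After 5 days, nuclei were stained in one fix-and-stain step and counted on 4× images, and relative viability is the nuclei count of treated wells over that of vehicle wells, given as the median of duplicate plates.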

[2] = compound: CCOC1=CC=CC=C1N=NC2=C(NN(C2=O)C3=NC(=CS3)C4=CC=CC=C4)C [BAM7] + Cc1nc(NC(=O)N2CCC[C@H]2C(N)=O)sc1-c1ccnc(C(C)(C)C(F)(F)F)c1 [Alpelisib] (partner 2 µM)
In short: as §1

[3] = compound: CCn1c(-c2nonc2N)nc2c(C#CC(C)(C)O)ncc(OC[C@H]3CCCNC3)c21 + CC(C)C[C@H](NC(=O)[C@H](Cc1ccccc1)NC(=O)c1cnccn1)B(O)O [Bortezomib] (partner 0.002 µM)
In short: as §1

[4] = compound: CCn1c(-c2nonc2N)nc2c(C#CC(C)(C)O)ncc(OC[C@H]3CCCNC3)c21 + C[C@]1(O)C[C@@H](c2nc(-c3ccc4ccc(-c5ccccc5)nc4c3)c3c(N)nccn32)C1 [Linsitinib] (partner 1 µM)
In short: as §1

Cell Line	relative viability ([1]; first compound 5 µM)	relative viability ([1]; first compound 50 µM)	relative viability ([2]; first compound 0.5 µM)	relative viability ([2]; first compound 5 µM)	relative viability ([2]; first compound 15.81 µM)	relative viability ([2]; first compound 50 µM)	relative viability ([3]; first compound 0.01 µM)	relative viability ([3]; first compound 0.03162 µM)	relative viability ([3]; first compound 0.1 µM)	relative viability ([3]; first compound 0.3162 µM)	relative viability ([3]; first compound 1 µM)	relative viability ([4]; first compound 0.01 µM)	relative viability ([4]; first compound 0.03162 µM)	relative viability ([4]; first compound 0.1 µM)	relative viability ([4]; first compound 0.3162 µM)	relative viability ([4]; first compound 1 µM)	relative viability ([1]; first compound 0.5 µM)	relative viability ([1]; first compound 15.81 µM)
SW 900	0.847	0.786	–	–	–	–	–	–	–	–	–	–	–	–	–	–	–	–
NCI-H838	0.776	0.758	1.06	1.05	0.989	1	1.25	0.971	0.945	0.545	0.655	1.03	1.05	1.02	0.991	0.975	0.876	0.797
NCI-H1648	0.799	0.558	–	–	–	–	–	–	–	–	–	–	–	–	–	–	0.772	0.322
A549	0.319	0.476	0.872	0.722	0.846	0.845	–	–	–	–	–	0.681	0.624	0.444	0.505	0.647	0.323	0.432
A-427	0.736	0.762	0.687	1.16	1.11	1.06	0.975	0.991	1.08	1.01	1.01	1.13	1.05	1.15	1.1	1.13	0.707	0.756
NCI-H1792	0.374	0.425	0.782	0.85	0.624	0.708	1.04	0.968	0.964	0.861	0.768	0.523	0.567	0.464	0.491	0.461	0.42	0.391
LCLC-97TM1	0.472	0.432	0.303	0.235	0.235	0.316	0.756	0.383	0.794	0.459	0.522	–	0.159	0.169	0.229	0.21	0.362	–
NCI-H1703	0.454	0.62	0.316	0.322	0.291	0.36	0.327	0.391	0.339	0.201	0.209	0.939	0.836	0.594	0.449	0.358	0.497	0.357
LCLC-103H	0.795	0.686	0.998	0.837	1.08	0.984	1.02	1.12	1.08	1.07	0.937	1.13	1.09	1.01	1.04	1.15	0.77	0.72
PC-3 [JPC-3]	1.1	0.995	1.02	0.99	0.876	0.907	0.82	0.852	0.796	0.781	0.808	0.959	0.933	0.98	0.927	0.932	1.12	1.06
BEN	1.09	1.04	1.11	0.948	0.903	1.08	0.713	0.803	0.661	0.73	0.696	0.9	1.08	0.772	0.767	0.967	1.2	0.809
